Assay results: ChEMBL document CHEMBL1147808, “Protein tyrosine phosphatase 1B inhibitory activity of triterpenes isolated from Astilbe koreana” (Bioorg Med Chem Lett, 2006)

molecular target: T1, Tyrosine-protein phosphatase non-receptor type 1 (Homo sapiens, UniProt P18031); assay: Inhibition of human recombinant PTP1B
T1 sequence (P18031 whole entry): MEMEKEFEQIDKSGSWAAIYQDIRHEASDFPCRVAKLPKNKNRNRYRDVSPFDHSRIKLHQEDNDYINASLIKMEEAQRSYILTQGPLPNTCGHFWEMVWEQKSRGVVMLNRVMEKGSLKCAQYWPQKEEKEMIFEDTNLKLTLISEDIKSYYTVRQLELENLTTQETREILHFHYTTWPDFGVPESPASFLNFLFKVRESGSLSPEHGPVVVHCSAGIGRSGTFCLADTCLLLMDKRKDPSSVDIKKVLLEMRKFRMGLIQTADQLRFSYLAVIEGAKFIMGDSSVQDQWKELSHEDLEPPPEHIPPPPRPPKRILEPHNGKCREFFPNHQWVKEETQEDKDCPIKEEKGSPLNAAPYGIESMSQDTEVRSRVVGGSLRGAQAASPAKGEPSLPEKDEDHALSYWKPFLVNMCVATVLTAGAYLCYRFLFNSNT

Row | Compound | IC50
1 | COC(=O)[C@@]12CC[C@@]3(C)CCC(C)(C)C[C@H]3C1=CC[C@@H]1[C@@]3(C)CC[C@H](O)C(C)(C)C3CC[C@]12C (some centres undefined) | 16 µM
2 | CC1(C)CC[C@]2(C)CC[C@]3(C(=O)O)C(=CC[C@@H]4[C@@]5(C)CC[C@@H](O)[C@](C)(CO)C5CC[C@]43C)[C@@H]2C1 (some centres undefined) | 11.7 µM
3 | CC(=O)O[C@H]1CC[C@@]2(C)C(CC[C@]3(C)[C@@H]2CC=C2[C@@H]4CC(C)(C)CC[C@]4(C)CC[C@]23C(=O)O)C1(C)C (some centres undefined) | 8.5 µM
4 | CC1(C)CC[C@]2(C)CC[C@]3(C(=O)O)C(=CC[C@@H]4[C@@]5(C)CC[C@H](O)C(C)(C)C5[C@H](O)C[C@]43C)[C@@H]2C1 (some centres undefined) | 12.8 µM
5 | COC(=O)[C@@]12CCC3C(=CC[C@H]4[C@@]3(C)CCC3C(C)(C)[C@@H](O)CC[C@@]34C)[C@@H]1CC(C)(C)CC2 (some centres undefined) | 14.2 µM
6 | CC1(C)[C@@H](O[C@H]2O[C@H](C(=O)O)[C@@H](O)[C@H](O)[C@H]2O[C@@H]2O[C@H](C(=O)O)[C@@H](O)[C@H](O)[C@H]2O)CC[C@]2(C)[C@H]3C(=O)C=C4[C@@H]5C[C@@](C)(C(=O)O)CC[C@]5(C)CC[C@@]4(C)[C@]3(C)CC[C@@H]12 [GLYCYRRHIZIN] | > 100 µM

These reach a lower IC50. Values come first.

Row | IC50 | Compound
7 | 6.8 µM | CC1(C)CC[C@]2(C)CC[C@]3(C(=O)O)C(=CC[C@@H]4[C@@]5(C)CCC(=O)C(C)(C)[C@@H]5CC[C@]43C)[C@@H]2C1
8 | 5.2 µM | CC1(C)CC[C@]2(C)CC[C@]3(C(=O)O)C(=CC[C@@H]4[C@@]5(C)CC[C@H](O)C(C)(C)C5CC[C@]43C)[C@@H]2C1 (some centres undefined)
9 | 4.9 µM | C[C@H]1[C@H](C)CC[C@]2(C)CC[C@]3(C(=O)O)C(=CC[C@@H]4[C@@]5(C)CC[C@H](O)C(C)(C)C5CC[C@]43C)[C@H]12 (some centres undefined)
